From patent US11891644B2, “T cells with reduced surface fucosylation and methods of making and using the same” (Seagen Inc., priority 2017, dated 2024)

Columns and labels:
primary human T cells = experiment: Ex-vivo expansion of human peripheral T cells with 2FF, surface fucosylation by flow cytometry (LCA surface staining); format: cell-based; conditions: 100 μM 2FF, 10 days in culture, CD3/CD28 beads + IL2; LCA surface staining (FIG. 4)
Experimental: T cells were isolated from 10 mL of whole blood which was centrifuged first at 1200 rpm (300×g) for 10 min (without brakes). The top layer containing platelets was removed carefully without disrupting the white blood cell layer. Then RosetteSep™ Human T-Cell Enrichment Cocktail (Pan T Cells from StemCell technologies) was added to the remaining blood (500 μLAO mL blood). This was incubated for 20 min and then 1 mL FBS was added along with 10 mL PBS. Histopaque (20-25 mL) placed in a 50 mL Falcon the prepared blood/PBS solution was overlaid very slowly. This was centrifuged with no brake (25° C., 1500 rpm, 25 min). The top layer was removed and the T cells in the buffy coat layer were then removed to a new 50 mL tube. […]
For in vitro culturing of primary human T cell culture, isolated T cells were re-suspended in T cell media (RPMI media supplemented with 10% Fetal calf serum (FCS), 1% Penicillin and moved into two T25 flasks, one with or and one without 100 μM 2-deoxy-2-fluoro-L-fucose. CD3/CD28 antibody coated beads (20 μL/flask) were added to activate the T cells. After 24 hr interleukin 2 (IL2) was added (100 ng/μL). Each time the cells were passaged new IL2 and 2-deoxy-2-fluoro-L-fucose were added. After 10 days in culture, expanded T cells cultured in 2FF were assessed for changes in surface fucosylation by flow cytometry (FIG. 4).

A20 mouse lymphoma cells = experiment: Growth of s.c. implanted A20 lymphoma in Balb/c mice receiving 2FF in drinking water; format: in vivo, mouse (Balb/c); conditions: 20 mM 2FF in drinking water from day 0; s.c. A20 tumors, 20 days; versus control group (FIG. 2)
Experimental: 20 Balb/c mice were implanted with A20 cells (0.2 mL of 5×10^6 cells s.c./mouse), one group of mice consisting of 10 animals received 2FF (20 mM in drinking water) from day 0 to termination of study. A20 lymphoma tumors were allowed to grow out and mice sacrificed after 20 days.

A20 cells = experiment: Anti-tumor activity of purified T cells or 2FF in s.c. A20 tumor bearing Balb/c mice; format: in vivo, mouse (Balb/c); conditions: treatment started at 100 mm^3 tumor; daily 20 mM 2FF in drinking water, or 2×10^6 T cells IP; versus untreated animals or T cells from untreated tumor bearing mice
Experimental: One group received no treatment, the other three group were treated when the A20 cells reached 100 mm^3 and were treated either with daily 20 mM 2FF in the drinking water, 2×10^6 T-cells isolated from control tumor bearing mice injected IP, or 2×10^6 T-cells isolated from 2FF tumor bearing mice injected IP. Animals were monitored for subsequent tumor progression.

CD3+ T cells = experiment: Surface fucosylation of CD3+ T cells isolated from spleens of A20 tumor bearing mice, flow cytometry (surface LCA staining); format: in vivo, mouse (Balb/c); conditions: T cells from A20 tumor bearing mice treated with 20 mM 2FF in drinking water, LCA staining (FIG. 3)
Experimental: Mice from the untreated and 2FF treated group were sacrificed and spleens taken for CD3 T-cell enrichment. In brief spleens were collected in RPMI containing 2% FBS and cell suspensions passed through a 70 μm mesh nylon strainer washed with 2% RPMI. Cells were suspended in 10 mls of ACK lysis buffer and incubate for 5 min in this buffer to get rid of RBCs. Cells were centrifuged at 300×g for 5 minutes and re-suspended in PBS containing 2% FBS and 1 mM EDTA. T-cells were isolated using EasySep mouse T cell isolation kit as per the manufactures recommendation. Briefly, cells were re-suspended at 10^8 cells/mL to which 50 μL/mL of rat serum was added. Cells were then transferred into a 5 mL polystyrene tube and 50 μL of isolation cocktail added to the sample followed by room temperature incubation for 10 minutes. Rapid spheres were vortexed and 75 μL/mls added followed by room temperature incubation for 2.5 minutes. Sample volume was topped off to 2.5 mL and incubated with the cell isolation magnet for 2.5 minutes. The magnet was inverted and CD3^+ T cells collected and washed twice in RPMI and resuspended at 21.2×10^6 cells/ml.

C[C@H](O)[C@@H](O)[C@@H](O)[C@H](F)C=O [2FF, 2-deoxy-2-fluoro-L-fucose]
decrease in surface fucosylation (primary human T cells): about 85%
tumor progression (A20 mouse lymphoma cells): significant delay in tumor progression
tumor growth (A20 cells): significantly delayed tumor growth and in some cases tumor regression
surface fucosylation of isolated CD3+ T cells (CD3+ T cells): significant reduction in surface fucosylation
